Where a SMILES comes first, the peptide text is derived from it. The star is where a group is joined. Cbz = O=C(OCc1ccccc1)*; CH2F = FC*
How the values were obtained:
m-calpain = target: T1, m-calpain (Homo sapiens, UniProt P17655); test: irreversible inhibition of m-calpain, k2 rate constant; assay type: biochemical; conditions: m-calpain / cathespin L, 28,900/680,000
T1 sequence (P17655 1-700): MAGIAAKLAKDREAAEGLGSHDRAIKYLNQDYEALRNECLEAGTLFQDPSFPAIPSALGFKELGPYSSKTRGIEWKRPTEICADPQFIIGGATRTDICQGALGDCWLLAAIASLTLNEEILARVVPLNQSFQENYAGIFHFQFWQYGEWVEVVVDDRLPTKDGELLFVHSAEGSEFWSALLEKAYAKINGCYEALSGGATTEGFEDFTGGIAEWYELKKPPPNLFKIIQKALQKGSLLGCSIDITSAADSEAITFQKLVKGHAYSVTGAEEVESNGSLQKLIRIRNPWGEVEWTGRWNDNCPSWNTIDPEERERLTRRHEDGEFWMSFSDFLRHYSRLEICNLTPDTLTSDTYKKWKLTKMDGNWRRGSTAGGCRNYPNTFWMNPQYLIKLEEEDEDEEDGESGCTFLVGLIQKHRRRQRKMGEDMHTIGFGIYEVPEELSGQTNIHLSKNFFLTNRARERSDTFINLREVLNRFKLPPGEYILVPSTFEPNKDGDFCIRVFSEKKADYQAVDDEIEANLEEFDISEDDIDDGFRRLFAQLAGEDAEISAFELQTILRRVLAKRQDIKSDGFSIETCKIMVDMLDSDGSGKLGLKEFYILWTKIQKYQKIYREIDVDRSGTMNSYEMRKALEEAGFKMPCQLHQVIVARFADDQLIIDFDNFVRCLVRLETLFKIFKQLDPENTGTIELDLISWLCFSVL
T1 sequence (P04632 1-268 partner): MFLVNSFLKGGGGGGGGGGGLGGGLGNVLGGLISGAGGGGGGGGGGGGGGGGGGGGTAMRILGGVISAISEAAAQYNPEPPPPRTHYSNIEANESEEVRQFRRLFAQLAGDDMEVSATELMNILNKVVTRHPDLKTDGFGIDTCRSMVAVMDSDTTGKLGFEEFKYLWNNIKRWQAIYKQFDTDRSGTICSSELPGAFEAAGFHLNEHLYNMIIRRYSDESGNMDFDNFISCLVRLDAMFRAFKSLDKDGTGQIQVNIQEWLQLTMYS
Source text: In some aspects, the m-calpain selective inhibitor can be an irreversible inhibitor of m-calpain. The inhibition is made […] by the nucleophilic attack of the active cysteine in m-calpain to the electrophilic moeity of the m-calpain selective inhibitor to form a covalent bond (Moldoveanu, T.; Campbell, R. L.; Cuerrier, D.; Davies, P. L. J. Mol. Biol., 343, 1313-1326, 2004; Carragher, N. O., Curr. Pharm. Des., 12, 615-638, 2006). […] However, ZZ-LLY-CH2F can inhibit the off-target protein cathespin L with a rate constant k2 of 680,000 M^−1s^−1 (Li, Q.; Hanzlik, R. P.; Weaver, R. F.; Schoenbrunn, E., Biochemistry, 45:701-708, 2006). Thus, the ratio of inhibition rates k2 of the on-target m-calpain to an off-target protein can be around 28,900/680,000, or about 0.041. The ratio of inhibition rates k2 of the on-target m-calpain to an off-target protein can be greater than about 0.5, or greater than 0.1, or greater than 0.05, or greater than 0.01.

[1] = test system: HT-29 human colorectal cancer cells; test: proliferation assay (MTS), HT-29; assay type: cell-based; conditions: HT-29, 20 μg/ml, vs DMSO
Description: Bone marrow derived macrophages (BMDM) were prepared as previously described by methods known to those skilled in the art. On day 5 of culture, 2×10^6 BMDM were seeded in 6-well plates and the following day were primed for 18 h with TNFα (20 ng/mL), followed by 1 h stimulation with E. faecalis (1 μg/mL; ATCC). Stimulation with E. faecalis was conducted in the presence of the zLLY-CH2F calpain-2 inhibitor (20 μg/mL) or DMSO as a control. Media was removed from treated BMDM, centrifuged at 300×g for 5 min and supernatent analyzed using the Cytometric Bead Array Mouse Inflammation Kit (BD Biosciences, San Jose, Calif.). Cytokine data were analyzed using Flowjo software (Ashland, Oreg.) and GraphPad Prism version 4.0 (GraphPad, La Jolla, Calif.). Cell pellets were lysed and analyzed for IκB and NFκB by Western blot as previously described (Miyazaki, T. et al. Journal of Atherosclerosis and Thrombosis 20, 228-237, 2013). […] Each day 4 wells were quantified using Celltiter MTS reagent (Promega) and the resulting signal was used to generate a proliferation curve. Calpain activity was measured using a Calpain activity assay kit (BioVision, Inc., Milpitas, Calif.) as previously described. Colons were harvested on day 4 and calpain activity measured. […]

[2] = test system: IκB / NFκB in CT-26 WT cells; test: IκB and nuclear NFκB western blot, CT-26.WT; assay type: cell-based, mouse; conditions: vs DMSO

ratio of inhibition rates k2 of on-target m-calpain to off-target protein (m-calpain): about 0.041
Compound: CC(C)C[C@H](NC(=O)OCc1ccccc1)C(=O)N[C@@H](CC(C)C)C(=O)N[C@@H](Cc1ccc(O)cc1)C(=O)CF [zLLY-CH2F, Z-LLY-CH2F] (Cbz-Leu-Leu-Tyr-CH2F)
proliferation [1]: reduction
IκB degradation [2]: reduced
NFκB nuclear localization [2]: reduced
